Here are results for one molecule from patent US12150919B2 (priority 2023, dated 2024).

Type in all cases: in vivo, white mice of Swiss strain
Assay [1] concerns doxorubicin-induced skin ulcers. The assay can be described thus: micromorphic index of the skin at the ulcer. Particulars: mice. The source says: (§1) Research indicators during burn treatment including: (A) macromorphological index, (B) quantification of hydroxyproline concentration in damaged tissue, and (C) micromorphic index; wherein: • (A) macromorphological index: • Injury status at the burn: swelling, heat, redness, edema observed by eye and recorded by digital camera; • Measure the burn area at 7, 14, and 21 days after causing the burn.
(§2) Evaluation of the scar healing effect of the composition 100 and composition 200 in experiments. The model was based on previous studies of doxorubicin-induced skin ulcers in white mice of Swiss strain, both breeds, healthy, weight 30-35 g. White mice of both breeds of both breeds were randomly divided into 5 lots, each batch of 10 animals as follows: • Lot 1: Intradermal injection of physiological saline, no applying DMSO/composition 100/composition 200; • Lot 2: Intradermal injection of doxorubicin 1 mg/0.5 ml, to heal the ulcer naturally; • Lot 3: Intradermal injection of doxorubicin 1 mg/0.5 ml, for ulcer progression for 7 days. […]
(§3) Research indicators during scar healing including: (A) macromorphological index, (B) quantification of hydroxyproline concentration in damaged tissue, and (C) micromorphic index; all was samed as the burn treatment research experimental.

The test system is the same in assay [2]. The assay is described as follows: doxorubicin-induced skin ulcers in white mice: ulcer area and macroscopic state.
Excerpt: as §1
Evaluation of the scar healing effect of the composition 100 and composition 200 in experiments. The model was based on previous studies of doxorubicin-induced skin ulcers in white mice of Swiss strain, both breeds, healthy, weight 30-35 g. White mice of both breeds of both breeds were randomly divided into 5 lots, each batch of 10 animals as follows: • Lot 1: Intradermal injection of physiological saline, no applying DMSO/composition 100/composition 200; • Lot 2: Intradermal injection of doxorubicin 1 mg/0.5 ml, to heal the ulcer naturally; • Lot 3: Intradermal injection of doxorubicin 1 mg/0.5 ml, for ulcer progression for 7 days. Then, drop 0.1 ml of DMSO on the ulcerated area, 2 times a day, use within 21 days; • Lot 4: Intradermal injection of doxorubicin 1 mg/0.5 ml, for ulcer progression for 7 days. Then, apply the composition 100 with dose of 0.1 ml/ulcer/time, 2 times/day, used for 21 days; and • Lot 5: Intradermal injection of doxorubicin 1 mg/0.5 ml, for ulcer progression for 7 days. Then, apply the composition 200 with dose of 0.1 ml/ulcer/time, with a frequency of twice daily, and used for 21 days.
as §3

The test system is the same in assay [3]. The assay can be described thus: hydroxyproline concentration in skin of mice with doxorubicin-induced ulcers. The note with it: doxorubicin-induced skin ulcer model; at the end of the study (21 days of application).
Excerpt: as §1, §2, §3

For the molecule `C[S+](C)[O-]` [DMSO, dimethyl sulfoxide], the “micromorphic images of the skin at the ulcer” value in assay [1] was “the skin has regenerated to form the epidermis, no formation of skin-dependent glands, less blood vessels”. Further, the “Area of skin ulcers After 7 days (x ± SD)” value in assay [2] (0.1 ml on ulcer 2 times a day, after 7 days) worked out at 50.13 ± 12.55 mm^2. In addition, the “Area of skin ulcers After 14 days Median (quartile)” value in assay [2] (0.1 ml on ulcer 2 times a day, after 14 days, median) was found to be 7.13 mm^2. Besides, in assay [2] (0.1 ml on ulcer 2 times a day, after 21 days, median), the “Area of skin ulcers After 21 days Median (quartile)” value is recorded as 0 mm^2. In addition, the “macroscopic state of the ulcerated skin area” value in assay [2] (at the end of the study) was “significantly reduced and almost completely healed skin ulcers”. The “Area of skin ulcers Before applied (x ± SD)” value in assay [2] (before applied (baseline)) turned out to be 75.71 ± 14.02 mm^2. Further, in assay [3], the “Hydroxyproline concentrations in mouse skin (x ± SD)” value worked out at 15.04 ± 2.35 mg/g skin.
